In paper PMC7848139, “Novel Hybrid CHC from β-carboline and N-Hydroxyacrylamide Overcomes Drug-Resistant Hepatocellular Carcinoma by Promoting Apoptosis, DNA Damage, and Cell Cycle Arrest” (Frontiers in Pharmacology, 2021):

Key:
[1] = test system: Bel7402/5-FU cells; assay: Cell cycle analysis by flow cytometry; assay type: cell-based, human; conditions: 2.0 and 5.0 μM, 72 h
Experimental: The collected cells were ﬁxed in 70% ethanol at 4°C overnight, and then incubated with RNase A and using PI (Sigma-Aldrich) to stain. Flow cytometry evaluated the percent of Deoxyribonucleic acid (DNA) on ﬂow cytometer (Beckman Coulter). The ModFit LT (Verity, Software House, Topsham, ME, United States) analyzed distribution of cell cycles.
FIGURE 9 CHC caused G2/M arrest in Bel7402/5-FU cells (A) Bel7402/5-FU cells were treated with CHC at different concentrations (0, 2.0, and 5.0 μM) for 72 h; (B) Quantification of cell distribution per phase. Values (mean ± SD) were obtained from three separate experiments. *p < 0.01 vs. control.

[2] = test system: SUMM-7721, Bel7402, Huh7, HCT116 and Bel7402/5FU cells; assay: MTT antiproliferative assay, range over the five cancer cell lines; assay type: cell-based; conditions: Homo sapiens; range over drug-sensitive SUMM-7721, Bel7402, Huh7, HCT116 and drug-resistant Bel7402/5FU cells
Experimental: Briefly, appropriate cells (1 × 10^4 cells/mL) were placed into 96-well plates in 100 μL of DMEM medium overnight. Then adding 100 μL of evaluated compounds into individual well for 72 h while 0.1% DMSO aqueous solution was treated as the negative control. After incubation with 30 μl MTT (5 mg/mL) for 4 h in all well, and ELISA plate reader measured absorbance of each well at 570 nm. Then calculating cytotoxicity effect of evaluated compounds through the formula: Cell inhibitory percentage (%) = (1−OD of treatment group/OD of control) × 100%.

[3] = target: T1, recombinant human HDAC1 (Homo sapiens, UniProt Q13547); assay: HDAC fluorimetric assay, HDAC1; assay type: biochemical
T1 construct: purchased Enzo Life Sciences Inc
Experimental: The assay was conducted according to the HDAC1/3/6/8 assay kit (Enzo Life Sciences Inc.). Each different concentrations of evaluated compounds were, respectively, incubated with each HDAC1/3/6/8 at coupling of corresponding HDAC substrate (Boc-Lys (Ac)-AMC) at 37°C for 60 min. Then stopping the reaction under adding lysine developer.

[4] = test system: Ac-histone H3, Ac-histone H4, Ac-α-tubulin in Bel7402/5-FU cells; assay: Western blotting of acetylated histone H3, H4 and α-tubulin; assay type: cell-based, human; conditions: 2.0 and 5.0 μM, 72 h
Experimental: The HDAC, autophagy and apoptosis-related proteins were analyzed according to Western blotting assay. […]. And anti-Ac-histone H3, anti-Ac-histone H4, anti-Ac-α-tubulin, anti-Bax, anti-Bcl2, anti-H2AX (S139ph), anti-CDK1, anti-cyclin B, and anti-β-actin antibodies (Cell Signaling Technology, MA, United States) detected the target proteins after membranes were blocked with 5% fat-free milk. The peroxidase-conjugated secondary antibodies detected the bound antibodies for 1 h and visualized according to improved chemiluminescent reagent.
The data (mean ± SD) were obtained from three independent assays. *p < 0.01 vs. control.

T1 sequence (Q13547 whole entry): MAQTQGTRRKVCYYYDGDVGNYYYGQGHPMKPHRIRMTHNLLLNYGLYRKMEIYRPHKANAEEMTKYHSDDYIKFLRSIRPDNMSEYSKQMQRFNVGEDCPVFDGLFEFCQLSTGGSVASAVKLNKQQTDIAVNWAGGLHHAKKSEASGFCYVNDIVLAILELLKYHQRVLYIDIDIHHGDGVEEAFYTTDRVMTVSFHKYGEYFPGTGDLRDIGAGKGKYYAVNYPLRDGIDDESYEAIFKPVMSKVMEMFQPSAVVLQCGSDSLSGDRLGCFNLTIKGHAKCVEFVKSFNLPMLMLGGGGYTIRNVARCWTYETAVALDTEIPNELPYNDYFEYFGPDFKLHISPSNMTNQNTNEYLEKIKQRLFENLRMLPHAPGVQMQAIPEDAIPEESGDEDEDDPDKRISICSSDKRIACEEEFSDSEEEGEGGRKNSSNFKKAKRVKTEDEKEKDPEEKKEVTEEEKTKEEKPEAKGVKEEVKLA

CN(C)c1ccc(-c2nc(C(=O)NCc3ccc(/C=C/C(=O)NO)cc3)cc3c2[nH]c2ccccc23)cc1 [CHC, (E)-N-(4-(3-(hydroxyamino)-3-oxoprop-1-en-1-yl)benzyl)-1-(4-dimethylaminophenyl)-9H-pyrido [3,4-b]indole-3-carboxamide]
cell cycle arrest [1]: significantly induced cell cycle arrest at the G2/M phase in a dose-dependent manner | IC50 [2]: 1840 to 3270 nM | IC50 on HDAC1 relative to SAHA ([3]; compared with SAHA): approximately five-fold lower | IC50 ([3]; mean ± SD of three experiments): 29 ± 3 nM | fold lower IC50 on HDAC1 than on HDAC3 ([3]; selectivity HDAC1 over HDAC3): 4 fold | acetylation of H3, H4 and α-tubulin [4]: promoted the acetylation of H3, H4, and α-tubulin with increasing dose
